Test results from article PMC12076188 (Cancer Research Communications, 2025).
pIC50: −log10 of the molar value. “Also recorded” adds a separate entry of the source. Like-named read-outs stand apart in the source and are kept apart here.

Columns and labels:
GDP-bound HRAS WT = target: T1, GDP-bound HRAS WT (Homo sapiens, UniProt P01112); assay: SOS1-mediated guanine nucleotide exchange assay (TR-FRET); format: biochemical
T1 construct: His-tagged HRAS WT (aa 1–166); made in house; host or cells: Escherichia coli

[1] = target: 5-Hydroxytryptamine 5HT2A (Homo sapiens, UniProt P28223); assay: 41-target safety off-target activity panel
[2] = test system: S. typhimurium TA97a, TA98, TA100, TA102 and TA1535; assay: In vitro Ames; format: cell-based; conditions: 50, 150, 500, 1500 and 5000 μg/plate, presence or absence of S9 mix; GLP
Procedure: Study Species/Strain Gender/No. per Noteworthy Findings GLP Compliance
strains of S. typhimurium: 150, 500, 1500 and 5000 μg/plate in the presence or absence of S9 mix.
and TA1535 The result of this Ames test was concluded to be negative. […]

[3] = test system: p-ERK1/2 (Thr202/Tyr204) in SW1573 cells (KRAS p.G12C); assay: cells; format: cell-based; conditions: Homo sapiens, SW1573, 2 h, read-out: p-ERK IC50 (nM)
Procedure: For phospho-ERK (p-ERK) assays, cells were seeded in 96-well plates with appropriate density (refer to Supplementary Table S3) and incubated overnight, followed by treatment with a series of concentrations of compounds in the assay medium (containing 0.1% FBS) for 2 hours. […] Then, p-AKT1/2/3 (Ser473) was detected using the p-AKT1/2/3 (Ser473) cellular kit (Cisbio/Revvity) according to the manufacturer’s instructions. […] The IC50 values were calculated using GraphPad Prism (RRID: SCR_002798) by fitting a four-parameter dose–response curve.

[4] = target: Norepinephrine Transporter NET (Homo sapiens, UniProt P23975); assay: 41-target safety off-target activity panel
Phosphodiesterase PDE3A = Phosphodiesterase PDE3A (Homo sapiens, UniProt Q14432); assay: 41-target safety off-target activity panel
Respiratory system = assay: In vivo safety pharmacology, GLP; parameters: species or system Sprague Dawley Rat; conditions: conscious rats, single oral dose 100, 300 and 1000 mg/kg
Excerpt: (§1) Supplementary Table S11. In vivo safety pharmacology of glecirasib.
(§2) Organ Species/Strain Gender/No. per Group Noteworthy Findings GLP Compliance
(§3) System Beagle Dog 3/gender/group conscious and unrestrained Beagle dogs following a single oral dose of Yes

Central Nervous System = assay: In vivo safety pharmacology, GLP; parameters: species or system Sprague Dawley Rat; conditions: conscious rats, single oral dose 100, 300 and 1000 mg/kg
Excerpt: as §1, §2, §3

PIM2 = target: T2, PIM2 (Homo sapiens, UniProt Q9P1W9); assay: 330-kinase panel; format: biochemical
T2 construct: purchased ICE Bioscience (contract screen)
Excerpt: Supplementary Table S4. 330-kinase panel.

GppNp-bound NRAS WT = target: T3, GppNp-bound NRAS WT (Homo sapiens, UniProt P01111); assay: GppNp-loaded RAS and cRAF interaction assay (HTRF); format: biochemical
T3 construct: His-tagged NRAS WT (aa 1–172); made in house; host or cells: Escherichia coli

SW1463 cells = assay: 3D cell viability combination study with cetuximab (Loewe synergy); format: cell-based; conditions: Homo sapiens
Procedure: (§4) The inhibitory activity of compounds on Ba/F3-engineered cell line viability was tested by Kyinno Biotechnology. Other cell viability assays on human cancer cell lines were conducted in-house. Cells were seeded in 96-well plates and incubated overnight, followed by treatment with various concentrations of compounds or solvent control for 6 days. Cell viability was detected using either the CellTiter-Glo (CTG) luminescent cell viability assay or the CTG 3D cell viability assay (Promega) for 2D and 3D CTG assays, respectively. For 3D CTG assays, cells were plated in round-bottom ultra-low attachment 96-well plates (Corning 7007). The cell density is indicated in Supplementary Table S3.
(§5) The synergistic effect in combination studies was determined using SynergyFinder^+ R package (RRID: SCR_019318; ref. [23]). Loewe score >5 indicates synergistic effect, −5 ≤ Loewe score ≤5 additive effect, and Loewe score < −5 antagonistic effect.
(§6) WT: wild type; AMP: amplification; CTG: CellTiter-Glo.

SW837 cells = assay: as above; format: cell-based; conditions: Homo sapiens
Procedure: as §4, §5, §6

Adrenergic α2A = Adrenergic α2A (Homo sapiens, UniProt P08913); assay: 41-target safety off-target activity panel
TK LCK = TK LCK (Homo sapiens, UniProt P06239); assay: 41-target safety off-target activity panel
[5] = AUC in plasma and brain following a single oral dose; format: in vivo, Rat (Sprague-Dawley); conditions: 300 mg/kg; for Kp: brain; for AUC(0-t): plasma, read-out: AUC0-24h Plasma
Acetylcholine M1 = Acetylcholine M1 (Homo sapiens, UniProt P11229); assay: 41-target safety off-target activity panel
Endothelin ETA = Endothelin ETA (Homo sapiens, UniProt P25101); assay: 41-target safety off-target activity panel
[6] = Rat (Sprague-Dawley), Female, single dose
[7] = Rat (Sprague-Dawley), Male, single dose

Chain of 5-Hydroxytryptamine 5HT2A (P28223 whole entry): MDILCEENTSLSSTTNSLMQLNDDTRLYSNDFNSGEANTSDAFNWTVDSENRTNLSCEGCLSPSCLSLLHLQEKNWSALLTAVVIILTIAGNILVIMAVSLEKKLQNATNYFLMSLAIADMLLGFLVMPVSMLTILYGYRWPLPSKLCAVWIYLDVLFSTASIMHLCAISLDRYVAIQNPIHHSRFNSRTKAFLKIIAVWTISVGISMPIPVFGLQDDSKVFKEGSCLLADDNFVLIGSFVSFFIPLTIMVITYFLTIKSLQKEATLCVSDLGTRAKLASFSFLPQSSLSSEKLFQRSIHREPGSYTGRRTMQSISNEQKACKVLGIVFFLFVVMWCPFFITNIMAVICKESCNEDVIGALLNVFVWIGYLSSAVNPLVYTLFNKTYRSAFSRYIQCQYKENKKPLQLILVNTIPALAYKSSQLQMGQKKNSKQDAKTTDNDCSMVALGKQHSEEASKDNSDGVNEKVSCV
Chain of Endothelin ETA (P25101 21-427): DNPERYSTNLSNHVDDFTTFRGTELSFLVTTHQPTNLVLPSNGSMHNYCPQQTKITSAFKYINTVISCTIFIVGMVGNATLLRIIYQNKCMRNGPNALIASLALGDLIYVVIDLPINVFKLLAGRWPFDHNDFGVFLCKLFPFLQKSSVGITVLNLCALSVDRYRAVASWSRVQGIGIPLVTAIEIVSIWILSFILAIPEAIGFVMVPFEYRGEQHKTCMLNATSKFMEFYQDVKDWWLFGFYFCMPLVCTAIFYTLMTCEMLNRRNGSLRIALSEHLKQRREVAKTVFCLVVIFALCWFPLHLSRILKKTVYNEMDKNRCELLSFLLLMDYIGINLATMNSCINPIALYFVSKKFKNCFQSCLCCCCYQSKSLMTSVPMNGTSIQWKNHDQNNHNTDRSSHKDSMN
Chain of Acetylcholine M1 (P11229 whole entry): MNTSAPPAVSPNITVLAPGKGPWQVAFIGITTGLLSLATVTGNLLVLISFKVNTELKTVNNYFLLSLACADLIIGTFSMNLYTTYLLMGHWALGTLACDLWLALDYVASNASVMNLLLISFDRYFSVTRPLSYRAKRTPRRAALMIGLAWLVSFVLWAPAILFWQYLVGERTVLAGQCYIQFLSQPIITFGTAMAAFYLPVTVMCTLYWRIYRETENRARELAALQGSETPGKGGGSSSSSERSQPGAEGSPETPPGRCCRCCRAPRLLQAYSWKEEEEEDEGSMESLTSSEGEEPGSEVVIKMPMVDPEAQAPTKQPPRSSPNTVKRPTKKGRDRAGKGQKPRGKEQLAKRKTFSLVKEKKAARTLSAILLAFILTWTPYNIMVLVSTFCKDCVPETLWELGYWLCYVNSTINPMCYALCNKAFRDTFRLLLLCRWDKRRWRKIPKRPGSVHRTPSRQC
Chain of Adrenergic α2A (P08913 whole entry): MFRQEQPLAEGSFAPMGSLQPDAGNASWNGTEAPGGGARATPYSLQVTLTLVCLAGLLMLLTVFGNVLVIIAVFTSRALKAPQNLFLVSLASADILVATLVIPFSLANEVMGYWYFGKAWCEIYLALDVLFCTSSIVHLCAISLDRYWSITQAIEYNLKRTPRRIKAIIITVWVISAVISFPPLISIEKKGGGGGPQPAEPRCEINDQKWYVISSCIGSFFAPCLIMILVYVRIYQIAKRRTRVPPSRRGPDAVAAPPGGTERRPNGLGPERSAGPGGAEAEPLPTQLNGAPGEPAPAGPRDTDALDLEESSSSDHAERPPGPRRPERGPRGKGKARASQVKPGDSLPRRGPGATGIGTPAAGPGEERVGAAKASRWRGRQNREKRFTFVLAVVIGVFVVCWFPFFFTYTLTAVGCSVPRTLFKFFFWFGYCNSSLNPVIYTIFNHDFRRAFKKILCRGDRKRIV
T2 sequence (Q9P1W9 whole entry, species assumed): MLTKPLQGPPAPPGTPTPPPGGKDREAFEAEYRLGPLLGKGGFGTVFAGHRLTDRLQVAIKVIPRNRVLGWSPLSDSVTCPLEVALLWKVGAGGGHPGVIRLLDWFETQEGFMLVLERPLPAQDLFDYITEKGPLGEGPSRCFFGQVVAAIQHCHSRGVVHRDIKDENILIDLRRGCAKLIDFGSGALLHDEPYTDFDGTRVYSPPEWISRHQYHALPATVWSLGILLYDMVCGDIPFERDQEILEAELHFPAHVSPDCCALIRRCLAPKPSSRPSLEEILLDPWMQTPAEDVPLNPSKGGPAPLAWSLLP
T1 sequence (P01112 1-166): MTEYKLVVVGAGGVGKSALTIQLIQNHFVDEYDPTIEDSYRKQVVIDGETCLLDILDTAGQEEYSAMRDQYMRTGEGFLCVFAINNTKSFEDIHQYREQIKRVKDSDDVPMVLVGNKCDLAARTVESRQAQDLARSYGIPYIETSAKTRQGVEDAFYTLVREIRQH
T3 sequence (P01111 1-172): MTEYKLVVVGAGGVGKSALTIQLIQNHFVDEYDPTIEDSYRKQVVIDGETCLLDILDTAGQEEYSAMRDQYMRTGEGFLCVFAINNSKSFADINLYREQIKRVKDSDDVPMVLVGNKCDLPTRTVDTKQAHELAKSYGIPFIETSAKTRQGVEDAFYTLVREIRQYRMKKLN
Chain of Norepinephrine Transporter NET (P23975 whole entry): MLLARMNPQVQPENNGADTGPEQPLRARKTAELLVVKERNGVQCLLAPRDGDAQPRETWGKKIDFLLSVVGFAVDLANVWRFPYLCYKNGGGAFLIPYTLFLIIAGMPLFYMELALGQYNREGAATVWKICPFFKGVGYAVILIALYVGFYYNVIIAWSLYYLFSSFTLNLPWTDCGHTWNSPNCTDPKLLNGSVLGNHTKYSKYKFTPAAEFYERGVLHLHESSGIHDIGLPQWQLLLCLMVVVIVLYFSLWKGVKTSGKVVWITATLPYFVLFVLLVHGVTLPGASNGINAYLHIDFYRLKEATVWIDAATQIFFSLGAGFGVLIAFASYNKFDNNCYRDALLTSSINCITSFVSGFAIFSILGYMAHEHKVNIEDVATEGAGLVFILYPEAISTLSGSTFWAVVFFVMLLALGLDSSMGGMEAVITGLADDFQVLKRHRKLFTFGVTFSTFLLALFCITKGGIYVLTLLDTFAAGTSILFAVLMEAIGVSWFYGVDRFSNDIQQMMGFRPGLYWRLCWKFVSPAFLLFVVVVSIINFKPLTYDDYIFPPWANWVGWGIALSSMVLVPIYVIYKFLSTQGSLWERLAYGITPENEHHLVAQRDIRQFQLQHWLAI
Chain of Phosphodiesterase PDE3A (Q14432 whole entry): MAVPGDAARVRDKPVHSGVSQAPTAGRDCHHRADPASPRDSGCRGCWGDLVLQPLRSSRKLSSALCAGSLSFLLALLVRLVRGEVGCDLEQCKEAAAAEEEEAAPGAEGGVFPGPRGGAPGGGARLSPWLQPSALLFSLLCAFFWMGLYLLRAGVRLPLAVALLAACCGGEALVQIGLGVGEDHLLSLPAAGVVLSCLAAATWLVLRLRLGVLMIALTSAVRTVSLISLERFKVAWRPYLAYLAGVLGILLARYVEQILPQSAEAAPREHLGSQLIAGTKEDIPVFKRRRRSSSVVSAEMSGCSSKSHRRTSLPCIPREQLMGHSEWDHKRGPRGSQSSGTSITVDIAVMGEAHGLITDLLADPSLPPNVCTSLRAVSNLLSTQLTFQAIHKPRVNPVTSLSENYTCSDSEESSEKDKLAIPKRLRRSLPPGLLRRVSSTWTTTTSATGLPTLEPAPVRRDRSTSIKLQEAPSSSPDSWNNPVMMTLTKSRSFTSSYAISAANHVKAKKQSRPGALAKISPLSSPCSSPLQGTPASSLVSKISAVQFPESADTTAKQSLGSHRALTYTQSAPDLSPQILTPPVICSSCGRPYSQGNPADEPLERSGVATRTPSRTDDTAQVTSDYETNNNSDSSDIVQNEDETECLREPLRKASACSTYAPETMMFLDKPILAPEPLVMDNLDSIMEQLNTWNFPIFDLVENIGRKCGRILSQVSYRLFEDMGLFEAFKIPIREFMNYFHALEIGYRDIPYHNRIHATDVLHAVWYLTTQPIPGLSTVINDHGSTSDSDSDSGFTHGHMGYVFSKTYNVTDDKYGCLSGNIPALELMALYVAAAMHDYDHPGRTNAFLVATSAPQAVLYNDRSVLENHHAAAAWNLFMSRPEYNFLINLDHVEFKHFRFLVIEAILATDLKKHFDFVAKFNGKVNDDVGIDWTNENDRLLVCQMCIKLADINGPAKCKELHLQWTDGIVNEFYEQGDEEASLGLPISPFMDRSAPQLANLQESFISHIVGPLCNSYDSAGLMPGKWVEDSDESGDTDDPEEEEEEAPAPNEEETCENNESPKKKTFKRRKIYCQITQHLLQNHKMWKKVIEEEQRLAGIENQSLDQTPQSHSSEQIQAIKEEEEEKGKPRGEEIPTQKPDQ
Chain of TK LCK (P06239 whole entry): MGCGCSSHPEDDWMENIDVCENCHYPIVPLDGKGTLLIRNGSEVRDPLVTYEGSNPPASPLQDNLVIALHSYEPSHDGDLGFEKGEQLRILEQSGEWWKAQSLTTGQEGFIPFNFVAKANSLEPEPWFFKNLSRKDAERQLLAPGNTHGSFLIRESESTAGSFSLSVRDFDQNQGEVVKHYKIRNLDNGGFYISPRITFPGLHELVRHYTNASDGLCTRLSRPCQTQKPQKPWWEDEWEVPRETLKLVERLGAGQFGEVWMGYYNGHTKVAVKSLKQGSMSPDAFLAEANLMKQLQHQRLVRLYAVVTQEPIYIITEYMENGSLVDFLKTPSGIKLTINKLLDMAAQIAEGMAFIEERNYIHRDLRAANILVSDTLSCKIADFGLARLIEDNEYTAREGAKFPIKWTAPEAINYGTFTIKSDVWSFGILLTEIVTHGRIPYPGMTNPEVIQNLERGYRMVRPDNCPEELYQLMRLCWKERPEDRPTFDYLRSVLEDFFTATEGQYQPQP

`C=CC(=O)N1CCN(c2c(C#N)c(=O)n(-c3c(C)ccnc3C(C)C)c3nc(-c4c(N)c(F)c(F)c(F)c4F)c(Cl)cc23)CC1` [Glecirasib] gave a pIC50 (GDP-bound HRAS WT) of under 5.00, an inhibition at 10 µM [1] of 13.6% and a Mean % activation ([1]; Glecirasib 10 μM) of -0.04%. The Ames test result [2] was “negative”, the IC50 [3] was 14 nM and the inhibition at 10 µM [4] was -35.7%. For the same molecule, the inhibition at 10 µM (Phosphodiesterase PDE3A) was 12.5%, the “Noteworthy Findings, respiratory” value (Respiratory system) was “No remarkable effect on respiratory functions; also recorded: no adverse effect” and the “Noteworthy Findings, central nervous system” value (Central Nervous System) was “No effects on neurobehavioral performances; also recorded: no adverse effect”. The inhibition at 10 µM (PIM2) was 50%, the pIC50 (GppNp-bound NRAS WT) was under 5.00 and the inhibition at 0.000391 µM (SW1463 cells) was -2%. The inhibition at 0.00156 µM (SW1463 cells) was 1%, the inhibition at 0.025 µM (SW1463 cells) was 29% and the inhibition at 0.1 µM (SW1463 cells) was 55%. The inhibition at 0.4 µM (SW1463 cells) was 69%, the inhibition at 0.000195 µM (SW837 cells) was -6% and the inhibition at 0.000781 µM (SW837 cells) was 8%. The inhibition at 0.00313 µM (SW837 cells) was 20%, the inhibition at 0.0125 µM (SW837 cells) was 48% and the inhibition at 0.05 µM (SW837 cells) was 64%. For the same molecule, the inhibition at 0.2 µM (SW837 cells) was 70%, the inhibition at 10 µM (Adrenergic α2A) was 27.9% and the Mean % activation (Adrenergic α2A; Glecirasib 10 μM) was 22.71%. For the same molecule, the inhibition at 10 µM (TK LCK) was 0.93%, the “AUC0-24h Brain (h·ng/g)” value [5, 6] was 1,875 h·ng/g and the “AUC0-24h Brain (h·ng/g)” value [5, 7] was 1,677 h·ng/g. It also gave a Kp ([5]; Sprague-Dawley, rat, rats, read-out: brain distribution, % of AUC in plasma) of 0.1, a Kp ([5]; Rat (Sprague-Dawley), Female, single dose, read-out: Brain/Plasma AUC0-24h ratio (%)) of 0.102 and a Kp ([5]; Rat (Sprague-Dawley), Male, single dose, read-out: Brain/Plasma AUC0-24h ratio (%)) of 0.0904. For the same molecule, the AUC(0-t) [5, 6] was 18400 ng·h/mL, the AUC(0-t) [5, 7] was 18600 ng·h/mL and the inhibition at 10 µM (Acetylcholine M1) was 31%. For the same molecule, the Mean % activation (Acetylcholine M1; Glecirasib 10 μM) was 13.78%, the inhibition at 10 µM (Endothelin ETA) was -14.8% and the Mean % activation (Endothelin ETA; Glecirasib 10 μM) was 1.59%.
